Data published in ChEMBL document CHEMBL5029144, “Positional Isomeric Effects on the Optical Properties, Multivalent Glycosidase Inhibition Effect, and Hypoglycemic Effect of Perylene Bisimide-deoxynojirimycin Conjugates” (J Med Chem, 2021).

What was measured:
[1] = Toxicity in C57BL-6J mouse assessed as increase in body weight at 2 mg/kg, po measured upto 30 days; type: organism-based; details: in vivo, 720 h, time <=30 day
[2] = target: T1, Alpha-mannosidase (Canavalia ensiformis) (UniProt C0HJB3); assay: Potency index, ratio of DNJ-1 Kd to test compound Kd for inhibition of Jack bean alpha-mannosidase
T1 sequence (whole entry): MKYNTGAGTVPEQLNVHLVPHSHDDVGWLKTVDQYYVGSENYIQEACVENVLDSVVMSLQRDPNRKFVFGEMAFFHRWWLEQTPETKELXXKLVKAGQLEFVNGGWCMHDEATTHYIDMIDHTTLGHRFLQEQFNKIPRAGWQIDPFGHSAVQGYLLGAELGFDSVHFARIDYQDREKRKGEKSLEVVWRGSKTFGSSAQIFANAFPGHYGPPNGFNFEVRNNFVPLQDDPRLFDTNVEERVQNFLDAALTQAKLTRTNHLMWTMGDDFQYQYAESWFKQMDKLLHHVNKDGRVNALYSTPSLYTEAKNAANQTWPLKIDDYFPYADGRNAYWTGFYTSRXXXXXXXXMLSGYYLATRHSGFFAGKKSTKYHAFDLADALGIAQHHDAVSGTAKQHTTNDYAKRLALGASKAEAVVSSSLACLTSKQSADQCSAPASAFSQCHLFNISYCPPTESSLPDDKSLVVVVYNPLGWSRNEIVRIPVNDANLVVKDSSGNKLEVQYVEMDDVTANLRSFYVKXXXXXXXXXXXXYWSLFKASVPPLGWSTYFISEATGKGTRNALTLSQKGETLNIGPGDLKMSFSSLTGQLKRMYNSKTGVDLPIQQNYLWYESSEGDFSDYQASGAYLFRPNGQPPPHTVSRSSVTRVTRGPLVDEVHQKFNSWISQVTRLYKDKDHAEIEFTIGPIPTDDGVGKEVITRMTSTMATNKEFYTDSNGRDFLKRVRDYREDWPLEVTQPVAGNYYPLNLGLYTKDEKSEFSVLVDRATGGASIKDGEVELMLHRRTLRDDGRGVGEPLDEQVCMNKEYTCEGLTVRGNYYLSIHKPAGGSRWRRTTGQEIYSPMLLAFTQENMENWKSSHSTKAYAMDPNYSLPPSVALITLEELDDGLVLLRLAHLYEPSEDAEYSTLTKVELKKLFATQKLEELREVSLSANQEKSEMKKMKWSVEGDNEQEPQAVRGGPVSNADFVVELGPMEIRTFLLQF

[3] = Toxicity in C57BL-6J mouse assessed as kidney pathological change at 2 mg/kg, po measured after 10 days by hematoxylin and eosin staining analysis; type: organism-based; details: in vivo, 240 h, time 10 day
[4] = Toxicity in C57BL-6J mouse assessed as increase in body weight at 2 mg/kg, po measured after 10 days; type: organism-based; details: in vivo, 240 h, time 10 day
[5] = Toxicity in C57BL-6J mouse assessed as lung pathological change at 2 mg/kg, po measured after 10 days by hematoxylin and eosin staining analysis; type: organism-based; details: in vivo, 240 h, time 10 day
[6] = Toxicity in C57BL-6J mouse assessed as spleen pathological change at 2 mg/kg, po measured after 10 days by hematoxylin and eosin staining analysis; type: organism-based; details: in vivo, 240 h, time 10 day
[7] = Toxicity in C57BL-6J mouse assessed as liver pathological change at 2 mg/kg, po measured after 10 days by hematoxylin and eosin staining analysis; type: organism-based; details: in vivo, 240 h, time 10 day
[8] = Toxicity in C57BL-6J mouse assessed as heart pathological change at 2 mg/kg, po measured after 10 days by hematoxylin and eosin staining analysis; type: organism-based; details: in vivo, 240 h, time 10 day
[9] = system: Aspergillus niger; assay: Potency index, ratio of DNJ-1 Kd to test compound Kd for inhibition of Aspergillus niger alpha-glucosidase
[10] = Stability of the compound in pH 2 by UV-vis spectroscopy; type: physicochemical; details: buffer
[11] = Stability of the compound in pH 7 by UV-vis spectroscopy; type: physicochemical; details: buffer
[12] = target: T2, Alpha-mannosidase (Canavalia ensiformis, UniProt C0HJB3); assay: Inhibition of jack bean alpha-mannosidase
T2 sequence (C0HJB3 whole entry): T1 sequence (whole entry)

[13] = Inhibition of Helix pomatia beta-mannosidase
[14] = Inhibition of green coffee beans alpha-galactosidase; set-up: species or system Coffea arabica
[15] = Inhibition of Escherichia coli beta-galactosidase
[16] = Inhibition of Aspergillus niger alpha-glucosidase
[17] = Inhibition of almond beta-glucosidase; set-up: species or system Prunus dulcis
[18] = target: T1, Alpha-mannosidase (Canavalia ensiformis); assay: Potency index, ratio of miglitol Kd to test compound Kd for inhibition of Jack bean alpha-mannosidase
[19] = system: Coffea arabica; assay: Potency index, ratio of miglitol Kd to test compound Kd for inhibition of Green coffee beans alpha-galactosidase
[20] = system: Aspergillus niger; assay: Potency index, ratio of miglitol Kd to test compound Kd for inhibition of Aspergillus niger alpha-glucosidase
[21] = target: T2, Alpha-mannosidase; assay: Inhibition of Jack bean alpha-mannosidase by Lineweaver-Burk plot
[22] = Inhibition of Green coffee beans alpha-galactosidase by Lineweaver-Burk plot; set-up: species or system Coffea arabica
[23] = Inhibition of Aspergillus niger alpha-glucosidase by Lineweaver-Burk plot
[24] = system: Mus musculus; assay: Hypoglycemic effect in maltose treated po dosed C57BL-6J mouse assessed as reduction in postprandial blood glucose level measured upto 180 mins; type: functional, organism-based; details: time min <=180
[25] = system: Mus musculus; assay: Hypoglycemic effect in maltose treated mouse C57BL-6J assessed as reduction in postprandial blood glucose level at 0.5 mg/kg, po measured after 15 mins; type: functional; set-up: scale not given: the % may be the effect or the level left; details: 0.25 h
[26] = system: Mus musculus; assay: Hypoglycemic effect in maltose treated mouse C57BL-6J assessed as reduction in postprandial blood glucose level at 1 mg/kg, po measured after 15 mins; type: functional; set-up: scale not given: the % may be the effect or the level left; details: 0.25 h
[27] = system: Mus musculus; assay: Hypoglycemic effect in maltose treated mouse C57BL-6J assessed as reduction in postprandial blood glucose level at 2 mg/kg, po measured after 15 mins; type: functional; set-up: scale not given: the % may be the effect or the level left; details: 0.25 h
[28] = (§1) Inhibition of mammalian Alpha-glucosidase (unknown origin) using PNPG as substrate pretreated for 20 mins followed by substrate addition measured after 26 mins
[29] = species on record: Homo sapiens; assay: as §1
[30] = system: Mus musculus; assay: Hypoglycemic effect in maltose treated C57BL-6J mouse assessed as reduction in postprandial blood glucose level at 2 mg/kg, po measured after 30 mins; type: functional; set-up: scale not given: the % may be the effect or the level left; details: 0.5 h
[31] = system: Mus musculus; assay: Hypoglycemic effect in maltose treated mouse C57BL-6J assessed as reduction in postprandial blood glucose level at 0.5 mg/kg, po measured after 30 mins; type: functional; set-up: scale not given: the % may be the effect or the level left
[32] = system: Mus musculus; assay: Hypoglycemic effect in maltose treated mouse C57BL-6J assessed as reduction in postprandial blood glucose level at 1 mg/kg, po measured after 30 mins; type: functional; set-up: scale not given: the % may be the effect or the level left; details: 0.5 h

Row | Ratio [2] | Ratio [9] | Stability [10] | Stability [11] | Kd [12] | Kd [13] | Kd ([14]; read-out: Kd) | Kd [16] | Kd [17] | Ratio [18] | SMILES | Activity [1] | Activity [3] | Activity [4] | Activity [5] | Activity [6] | Activity [7] | Activity [8] | Kd [15] | Activity [26] | Activity [27] | further results
1 | 16300 | 4.2 | Stable | Stable | 17 nM | Not Active | 1930 nM | 14.7 µM | Not Active | 6180 | O=C1c2cc(Cl)c3c4c(Cl)cc5c6c(cc(Oc7ccc(OCc8cn(CCCN9C[C@H](O)[C@@H](O)[C@H](O)[C@H]9CO)nn8)cc7)c(c7c(Oc8ccc(OCc9cn(CCCN%10C[C@H](O)[C@@H](O)[C@H](O)[C@H]%10CO)nn9)cc8)cc(c2c37)C(=O)N1Cc1cn(CCCN2C[C@H](O)[C@@H](O)[C@H](O)[C@H]2CO)nn1)c64)C(=O)N(Cc1cn(CCCN2C[C@H](O)[C@@H](O)[C@H](O)[C@H]2CO)nn1)C5=O | Toxic | Non-Toxic | Non-Toxic | Non-Toxic | Non-Toxic | Non-Toxic | Non-Toxic | Not Active | 11.3% | 22.2% | Ratio [19]: 7.2; Ratio [20]: 1.4; Ki [21]: 17 nM; Ki [22]: 1030 nM; Ki [23]: 14.7 µM; Activity [24]: Dose-Dependent Effect; Activity [25]: 4%; IC50 [28]: 14.4 µM; inhibition [29]: Dose-Dependent Effect
2 |  |  |  |  |  | Not Active |  | 20.6 µM | Not Active |  | OCCN1C[C@H](O)[C@@H](O)[C@H](O)[C@H]1CO [MIGLITOL] |  |  |  |  |  |  |  | Not Active | 27.3% | 40.4% | Kd [14]: Not Active; Activity [30]: 36.6%
3 |  |  |  |  | 277000 nM | Not Active |  | 61.6 µM | Not Active |  | OCc1cn(CCCN2C[C@H](O)[C@@H](O)[C@H](O)[C@H]2CO)nn1 |  |  |  |  |  |  |  | Not Active |  |  | Kd [14]: Not Active
4 | 2310 | 4.7 | Stable | Stable | 120 nM | Not Active | 1430 nM | 13.1 µM | Not Active | 876 | O=C1c2cc(Cl)c3c4c(Oc5ccc(OCc6cn(CCCN7C[C@H](O)[C@@H](O)[C@H](O)[C@H]7CO)nn6)cc5)cc5c6c(cc(Oc7ccc(OCc8cn(CCCN9C[C@H](O)[C@@H](O)[C@H](O)[C@H]9CO)nn8)cc7)c(c7c(Cl)cc(c2c37)C(=O)N1Cc1cn(CCCN2C[C@H](O)[C@@H](O)[C@H](O)[C@H]2CO)nn1)c64)C(=O)N(Cc1cn(CCCN2C[C@H](O)[C@@H](O)[C@H](O)[C@H]2CO)nn1)C5=O | Toxic | Non-Toxic | Non-Toxic | Non-Toxic | Non-Toxic | Non-Toxic | Non-Toxic | Not Active | 29.2% | 41.3% | Ratio [19]: 9.7; Ratio [20]: 1.5; Ki [21]: 120 nM; Ki [22]: 1430 nM; Ki [23]: 13.1 µM; Activity [24]: Dose-Dependent Effect; Activity [25]: 22.4%; Activity [31]: 15.2%; Activity [32]: 20.8%; Activity [30]: 37.4%; IC50 [28]: 11.6 µM; inhibition [29]: Dose-Dependent Effect
